Active and inactive are the calls of the source.
What was measured:
Caspase-8 = Caspase-8 (Homo sapiens, UniProt Q14790); test: caspase-8 inhibition counter-screen, dose response, selectivity assay for caspase-6 inhibitor project, biochemical, Z-IETD-R110 fluorescence, cherry-picked samples (AID 743294)
Caspase-7 = target: T1, Caspase-7 (Homo sapiens, UniProt P55210); test: human caspase-7 inhibitors, dose response, selectivity assay for caspase-6 inhibitor project, biochemical, DEVD-R110 fluorescence, cherry-pick (AID 743295)
T1 sequence (P55210 whole entry): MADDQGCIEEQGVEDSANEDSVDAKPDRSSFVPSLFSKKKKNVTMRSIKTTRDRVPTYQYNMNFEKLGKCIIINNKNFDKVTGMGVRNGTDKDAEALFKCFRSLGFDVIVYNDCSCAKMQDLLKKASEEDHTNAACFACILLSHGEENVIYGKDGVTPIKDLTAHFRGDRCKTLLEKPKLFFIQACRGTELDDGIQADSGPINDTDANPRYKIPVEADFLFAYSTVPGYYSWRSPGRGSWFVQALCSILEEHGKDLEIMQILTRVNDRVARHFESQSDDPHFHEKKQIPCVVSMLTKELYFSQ

[1] = target: Heat shock protein HSP 90-alpha (Homo sapiens, UniProt P07900); assay type: functional, organism-based
Caspase-6 = target: T2, Caspase-6 (Homo sapiens, UniProt P55212); test: human caspase-6 inhibitors, dose response, biochemical, VEID-R110 fluorescence, cherry-pick (AID 720632)
T2 sequence (P55212 whole entry): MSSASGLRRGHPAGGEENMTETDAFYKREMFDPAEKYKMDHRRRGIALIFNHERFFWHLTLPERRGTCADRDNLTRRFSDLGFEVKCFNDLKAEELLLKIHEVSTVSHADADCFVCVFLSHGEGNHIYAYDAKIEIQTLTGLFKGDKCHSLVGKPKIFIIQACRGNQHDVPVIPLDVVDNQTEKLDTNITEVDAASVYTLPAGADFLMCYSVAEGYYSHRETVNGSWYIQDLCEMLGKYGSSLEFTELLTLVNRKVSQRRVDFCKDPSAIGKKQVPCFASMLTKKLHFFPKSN

[2] = target: Mitochondrial peptide methionine sulfoxide reductase (Bos taurus, UniProt P54149); test: Absorbance-based biochemical high throughput dose response assay for activators of Methionine sulfoxide reductase A (MsrA).; assay type: functional
[3] = target: Neuropeptides B/W receptor type 1 (Homo sapiens, UniProt P48145); test: GPR7 antagonist potency, late-stage follow-up, cell-based, fluorescence, dose response, set 6 (AID 588583); assay type: functional
[4] = target: Melanin-concentrating hormone receptor 1 (Homo sapiens, UniProt Q99705); test: Late-stage fluorescence-based counterscreen for antagonists of the G-protein coupled receptor 7 (GPR7): cell-based dose response assay to identify antagonists of the melanin-concentrating hormone receptor 1 (MCHR1) Set 6.; assay type: functional
[5] = target: T3, High affinity choline transporter 1 (Homo sapiens, UniProt Q9GZV3); test: CHT inhibitors, dose response, cell-based, 5-point CRC, membrane potential dye (AID 504840); assay type: functional
T3 sequence (Q9GZV3 whole entry): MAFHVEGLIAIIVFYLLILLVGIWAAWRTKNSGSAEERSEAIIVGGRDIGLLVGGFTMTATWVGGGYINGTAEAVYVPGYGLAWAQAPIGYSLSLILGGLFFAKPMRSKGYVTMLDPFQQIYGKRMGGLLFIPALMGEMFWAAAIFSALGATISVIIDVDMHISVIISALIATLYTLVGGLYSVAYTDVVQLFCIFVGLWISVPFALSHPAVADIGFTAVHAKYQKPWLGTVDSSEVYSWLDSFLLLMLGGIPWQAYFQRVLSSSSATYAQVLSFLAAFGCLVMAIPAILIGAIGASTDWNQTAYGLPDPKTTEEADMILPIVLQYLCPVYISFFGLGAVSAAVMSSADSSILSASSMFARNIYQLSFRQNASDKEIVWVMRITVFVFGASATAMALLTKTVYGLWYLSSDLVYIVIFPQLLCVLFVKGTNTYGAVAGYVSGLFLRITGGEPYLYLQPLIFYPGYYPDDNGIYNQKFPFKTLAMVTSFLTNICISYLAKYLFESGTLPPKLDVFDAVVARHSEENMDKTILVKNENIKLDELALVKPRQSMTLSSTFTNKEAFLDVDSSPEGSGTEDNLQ

[6] = target: T3, High affinity choline transporter 1; test: CHT inhibitors, dose response, cell-based, 10-point CRC, membrane potential dye (AID 588401); assay type: functional;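 also: membrane potential dye fluorescence of choline-evoked depolarization via CHT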
[7] = CRF-BP/CRF-R2 complex antagonists, dose response, cell-based, uHTS hits, 384-well (AID 651639); assay type: functional, Homo sapiens; details: read-out: IC50_Mean
[8] = target: T4, Corticotropin-releasing factor receptor 2/Corticotropin-releasing factor-binding protein (Homo sapiens, UniProt P24387+Q13324); test: Dose Response confirmation of uHTS hits for small molecule antagonists of the CRF-binding protein and CRF-R2 receptor complex.; assay type: functional; details: read-out: IC50_Mean
T4 sequence (Q13324 whole entry): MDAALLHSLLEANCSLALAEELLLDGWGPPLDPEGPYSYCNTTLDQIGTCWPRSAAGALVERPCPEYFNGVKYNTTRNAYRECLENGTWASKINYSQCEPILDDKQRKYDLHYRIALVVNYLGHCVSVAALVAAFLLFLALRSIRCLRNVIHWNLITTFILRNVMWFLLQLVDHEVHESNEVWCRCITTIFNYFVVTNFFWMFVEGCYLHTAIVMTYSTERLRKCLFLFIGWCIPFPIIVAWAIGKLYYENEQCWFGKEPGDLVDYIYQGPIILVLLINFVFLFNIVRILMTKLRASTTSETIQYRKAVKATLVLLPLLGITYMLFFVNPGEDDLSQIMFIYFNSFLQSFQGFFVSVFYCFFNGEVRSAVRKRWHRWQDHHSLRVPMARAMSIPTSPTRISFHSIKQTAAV
T4 sequence (P24387 whole entry): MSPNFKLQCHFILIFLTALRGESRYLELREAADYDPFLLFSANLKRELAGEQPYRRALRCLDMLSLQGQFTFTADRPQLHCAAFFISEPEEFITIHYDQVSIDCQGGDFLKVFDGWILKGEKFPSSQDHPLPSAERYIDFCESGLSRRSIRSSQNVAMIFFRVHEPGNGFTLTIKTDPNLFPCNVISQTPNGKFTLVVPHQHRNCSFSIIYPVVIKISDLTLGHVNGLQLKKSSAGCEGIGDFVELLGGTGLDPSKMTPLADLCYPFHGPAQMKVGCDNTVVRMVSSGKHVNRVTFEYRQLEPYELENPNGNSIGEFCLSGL

[9] = target: T4, Corticotropin-releasing factor receptor 2/Corticotropin-releasing factor-binding protein; test: activators of CRF receptor 2 with binding protein – uHTS hits, confirmation (AID 602473); assay type: functional; details: read-out: EC50_Mean

Chain of Neuropeptides B/W receptor type 1 (P48145 whole entry): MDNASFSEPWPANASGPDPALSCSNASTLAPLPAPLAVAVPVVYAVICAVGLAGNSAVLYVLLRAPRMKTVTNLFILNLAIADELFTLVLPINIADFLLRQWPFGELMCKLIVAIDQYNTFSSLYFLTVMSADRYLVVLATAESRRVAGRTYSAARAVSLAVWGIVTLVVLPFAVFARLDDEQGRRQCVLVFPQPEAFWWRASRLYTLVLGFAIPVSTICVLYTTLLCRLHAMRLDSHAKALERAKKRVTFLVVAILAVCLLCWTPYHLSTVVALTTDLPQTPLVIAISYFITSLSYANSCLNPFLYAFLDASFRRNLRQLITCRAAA
Chain of Melanin-concentrating hormone receptor 1 (Q99705 whole entry): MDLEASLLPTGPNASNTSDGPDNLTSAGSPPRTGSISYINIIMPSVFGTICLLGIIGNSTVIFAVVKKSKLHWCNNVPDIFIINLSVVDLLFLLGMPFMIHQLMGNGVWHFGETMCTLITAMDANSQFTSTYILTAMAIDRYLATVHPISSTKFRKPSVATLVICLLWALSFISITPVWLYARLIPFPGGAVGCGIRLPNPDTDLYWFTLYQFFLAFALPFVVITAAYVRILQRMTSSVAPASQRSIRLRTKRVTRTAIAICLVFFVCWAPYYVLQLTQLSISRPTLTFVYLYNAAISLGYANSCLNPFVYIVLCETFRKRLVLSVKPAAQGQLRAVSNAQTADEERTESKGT
Chain of Mitochondrial peptide methionine sulfoxide reductase (P54149 whole entry): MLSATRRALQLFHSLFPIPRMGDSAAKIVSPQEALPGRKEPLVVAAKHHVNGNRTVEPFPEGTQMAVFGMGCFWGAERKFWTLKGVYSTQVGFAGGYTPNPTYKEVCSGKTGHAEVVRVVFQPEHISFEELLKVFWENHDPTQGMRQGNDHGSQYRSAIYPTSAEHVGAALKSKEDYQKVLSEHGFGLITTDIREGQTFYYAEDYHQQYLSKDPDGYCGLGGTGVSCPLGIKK
Chain of Caspase-8 (Q14790 217-374 limits assumed): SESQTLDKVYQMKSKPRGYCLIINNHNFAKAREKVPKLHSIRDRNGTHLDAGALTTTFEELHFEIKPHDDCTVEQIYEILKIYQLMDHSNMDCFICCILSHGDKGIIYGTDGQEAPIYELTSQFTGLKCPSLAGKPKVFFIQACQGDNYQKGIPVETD
Chain of Caspase-8 (Q14790 385-479 limits assumed): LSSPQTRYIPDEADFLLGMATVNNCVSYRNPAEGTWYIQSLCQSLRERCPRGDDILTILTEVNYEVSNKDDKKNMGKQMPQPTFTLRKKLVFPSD

| Compound | IC50 [3] | IC50 [4] | IC50 [5] | IC50 [6] | also measured |
| --- | --- | --- | --- | --- | --- |
| CC(C)(C)c1ccc(NC(=O)COC(=O)c2ccc([N+](=O)[O-])s2)cc1 |  |  |  |  | AC50 (Caspase-8): 37.4 µM (active); AC50 (Caspase-7): 21.7 µM (active); AC50 [1]: 2.85 µM (active); AC50 (Caspase-6): 3.59 µM (active); EC50 [2]: 54.7 µM (inactive) |
| C/C(=N\N=C(N)N)c1ccc(Cl)cc1 |  |  | 7.39 µM (active) | 4.01 µM (active) |  |
| CC(c1ccco1)N(C(=O)c1ccccc1NS(=O)(=O)c1ccc(Cl)c([N+](=O)[O-])c1)c1ccccn1 (stereo unspecified) |  |  | 0.661 µM (inconclusive) | 4.01 µM (active) | IC50 [7]: 18 µM (active); IC50 [8]: 20.3 µM (active); EC50 [9]: > 53 µM (inactive) |

Now from value to molecule, other results behind:

| IC50 [3] | IC50 [4] | IC50 [5] | IC50 [6] | Compound | also measured |
| --- | --- | --- | --- | --- | --- |
| 400 nM (active) | 400 nM (active) |  |  | CCOc1ccc(C(C#N)c2c(Br)cnn(Cc3cccc4ccccc34)c2=O)cc1 (stereo unspecified) |  |
| 3580 nM (active) | 3580 nM (active) |  |  | O=c1c(-c2ccccc2F)c(Br)cnn1Cc1cccc2ccccc12 |  |
